Converted amounts (≈) assume the structure as drawn.
What was measured:
[1] = tested on: Experimental Allergic Encephalomyelitis (EAE); assay: Experimental Allergic Encephalomyelitis (EAE) in rats; assay type: in vivo, Lewis strain rats
Description: Effect of α-methyl-4-dimethylamino-2',5'-dimethoxychalcone on Experimental Allergic Encephalomyelitis (EAE) in Rats
EAE was induced in rats as described by Rosenthal and Nagra, Proc. Soc.
Lewis strain rats ranging in weight
from 100-200 g were sensitized with encephalitogenic emulsion consisting
of homogenized spinal cord in complete Freund's adjuvant. The test
compound and hydrocortisone (HC) were administered in
polyvinylpyrrolidone vehicle. The test compound was administered i.p.
once daily from day 1 through day 10. HC was administered s.c. once
every other day from day 1 through day 10. The incidence of paralysis
was recorded and mean paralysis time was calculated.

[2] = tested on: HeLa cells; assay: Growth inhibition of HeLa cells; assay type: cell-based; conditions: Homo sapiens, 72 hours
Description: The compounds of structure 1 inhibit the polymerization of tubulin, and thus the formation of microtubules, that ubiquitous substance of eukaryotic cells which serves a variety of functions, most importantly, to separate the duplicated sets of chromosomes during cell mitosis.
For growth inhibition studies, exponentially growing HeLa cells
were incubated at a density of 1 × 10^5 cells/35 mm dish with
number of dilutions of the test compound in the medium. The
plates were incubated at 37° C. in a CO2 incubation. At the
of 72 hours the cells were collected by trypinization and
counted and the IC50 (.upsilon.g/ml) was determined.

[3] = 6.25 mg/kg i.p. once daily day 1 through day 10
[4] = 12.5 mg/kg i.p. once daily day 1 through day 10
[5] = 25.0 mg/kg i.p. once daily day 1 through day 10

Compound	number paralyzed/total number of animals ([1]; 25.0 mg/kg s.c. once every other day day 1 through day 10)	IC50 [2] [µg/mL]	PARALYSIS TIME (Mean ± S.E.) [1, 3] [days]	PERCENT INCIDENCE OF PARALYSIS [1, 3] [%]	number paralyzed/total number of animals [1, 3]	PARALYSIS TIME (Mean ± S.E.) [1, 4] [days]	PERCENT INCIDENCE OF PARALYSIS [1, 4] [%]	number paralyzed/total number of animals [1, 4]	PARALYSIS TIME (Mean ± S.E.) [1, 5] [days]	PERCENT INCIDENCE OF PARALYSIS [1, 5] [%]	number paralyzed/total number of animals [1, 5]
C[C@]12CCC(=O)C=C1CC[C@@H]1[C@@H]2[C@@H](O)C[C@@]2(C)[C@H]1CC[C@]2(O)C(=O)CO [HYDROCORTISONE, hydrocortisone, reference compound]	14/19										
COc1ccc(OC)c(C(=O)C(C)=Cc2ccc(N(C)C)cc2)c1 [COMPOUND, 1-(2,5-dimethoxyphenyl)-3-[4-(dimethylamino)phenyl]-2-methyl-2-propen-1-one]		0.015 (≈ 0.0461 µM)	9.7 ± 0.36	90	9/10	9.4 ± 0.26	80	8/10	10.8 ± 0.54	40	7/18
